Oligonucleotides are written 5' to 3', each unit as a sugar letter and its base; * is a phosphorothioate linkage, no mark a phosphodiester; rarer units and linkages stand in square brackets, end groups in braces. Plain capitals give the bases only. e = 2'-O-(2-methoxyethyl) (MOE); [5mC] = 5-methylcytosine; d = 2'-deoxy (DNA)

Consider 32 substances from patent US20050074879A1, “Antisense oligonucleotide modulation of STAT3 expression” (priority 2000, published 2005).

The data set relates to Human STAT3 mRNA. Put plainly: Inhibition of human STAT3 mRNA levels in A549 cells, 75 nM, real-time PCR (Table 13). The settings on record: 75 nM oligonucleotide with LIPOFECTIN, real-time PCR PPS 199, percent inhibition relative to untreated control cells, average of 2 experiments. It counts as cell-based. The protocol: Oligonucleotide activity is assayed by quantitation of STAT3 mRNA levels by real-time PCR (RT-PCR) using the ABI PRISMS 7700 Sequence Detection System (PE-Applied Biosystems, Foster City, Calif.) according to manufacturer's instructions. This is a closed-tube, non-gel-based, fluorescence detection system which allows high-throughput quantitation of polymerase chain reaction (PCR) products in real-time. As opposed to standard PCR, in which amplification products are quantitated after the PCR is completed, products in RT-PCR are quantitated as they accumulate. This is accomplished by including in the PCR reaction an oligonucleotide probe that anneals specifically between the forward and reverse PCR primers, and contains two fluorescent dyes. A reporter dye (e.g., JOE or FAM, PE-Applied Biosystems, Foster City, Calif.) is attached to the 5′ end of the probe and a quencher dye (e.g., TAMRA, PE-Applied Biosystems, Foster City, Calif.) is attached to the 3′ end of the probe. When the probe and dyes are intact, reporter dye emission is quenched by the proximity of the 3′ quencher dye. During amplification, annealing of the probe to the target sequence creates a substrate that can be cleaved by the 5′-exonuclease activity of Taq polymerase. […] With each cycle, additional reporter dye molecules are cleaved from their respective probes, and the fluorescence intensity is monitored at regular (six-second) intervals by laser optics built into the ABI PRISM™ 7700 Sequence Detection System. In each assay, a series of parallel reactions containing serial dilutions of mRNA from untreated control samples generates a standard curve that is used to quantitate the percent inhibition after antisense oligonucleotide treatment of test samples.
RT-PCR reagents are obtained from PE-Applied Biosystems, Foster City, Calif. RT-PCR reactions are carried out by adding 25 l PCR cocktail (1× TAQMAN7 buffer A, 5.5 mM MgCl2, 300 µM each of DATP, dCTP and dGTP, 600 µM of dUTP, 100 nM each of forward primer, reverse primer, and probe, 20 U RNAse inhibitor, 1.25 units AMPLITAQ GOLD7, and 12.5 U MuLV reverse transcriptase) to 96 well plates containing 25 l poly(A) mRNA solution. The RT reaction is carried out by incubation for 30 minutes at 48° C. following a 10 minute incubation at 95° C. to activate the AMPLITAQ GOLD7, 40 cycles of a two-step PCR protocol are carried out: 95° C. for 15 seconds (denaturation) followed by 60° C. for 1.5 minutes (annealing/extension).
The compounds were analyzed for their effect on STAT3 mRNA levels in A549 cells. The human lung carcinoma cell line A549 was obtained from the American Type Culture Collection (ATCC) (Manassas, Va.). A549 cells were routinely cultured in DMEM basal media (Invitrogen Corporation, Carlsbad, Calif.) supplemented with 10% fetal calf serum (Invitrogen Corporation, Carlsbad, Calif.), 100 units/mL penicillin, and 100 ug/mL streptomycin (Invitrogen Corporation, Carlsbad, Calif.). Cells were routinely passaged by trypsinization and dilution when they reached 90% confluence.
When cells reached 65-75% confluency, they were treated with oligonucleotide. For cells grown in 96-well plates, wells were washed once with […] OPTI-MEM-1 reduced-serum medium (Invitrogen Corporation, Carlsbad, Calif.) and then treated with 130 µL of OPTI-MEM-1 containing […] LIPOFECTIN (Invitrogen Corporation, Carlsbad, Calif.) and 75 nM of the compounds in Table 13. Cells were treated and data were obtained in duplicate. Untreated cells served as controls. After 4-7 hours of treatment at 37° C., the medium was replaced with fresh medium. Cells were harvested 16-24 hours after oligonucleotide treatment. STAT3 mRNA levels in A549 cells were quantitated by real-time PCR as described by other methods herein.
Probes and primers to human STAT3 were designed to hybridize to a human STAT3 sequence, using published sequence information (incorporated herein as SEQ ID NO: 1). For STAT 3 the PCR primers were: • forward primer: […]
For the substance “337279 (antisense eG*eT*eT*eG*eA*dA*dA*dT*d[5mC]*dA*dA*dA*dG*dT*d[5mC]*eA*eT*e[5mC]*e[5mC]*eT) [compound 337279]”, the “% Inhib (inhibition of human STAT 3 mRNA levels)” value (shortened to “% Inhib”) is 78%.

For the substance “337280 (antisense eT*eT*eA*eT*eA*dG*dT*dT*dG*dA*dA*dA*dT*d[5mC]*dA*eA*eA*eG*eT*e[5mC]) [compound 337280]”, the “% Inhib” value was 45%.

Consider “337281 (antisense eG*eG*eG*eT*eT*dT*dT*dA*dT*dA*dG*dT*dT*dG*dA*eA*eA*eT*e[5mC]*eA) [compound 337281]”, for which the “% Inhib” value is on record as 16%.

Take “337282 (antisense e[5mC]*eT*eT*eG*eA*dG*dG*dG*dT*dT*dT*dT*dA*dT*dA*eG*eT*eT*eG*eA) [compound 337282]”: the “% Inhib” value is 58%.

On to “337283 (antisense eT*eG*eA*e[5mC]*eT*d[5mC]*dT*dT*dG*dA*dG*dG*dG*dT*dT*eT*eT*eA*eT*eA) [compound 337283]”, for which the “% Inhib” value is reported as 71%.

“337285 (antisense e[5mC]*eA*eT*eG*eT*d[5mC]*dT*d[5mC]*d[5mC]*dT*dT*dG*dA*d[5mC]*dT*e[5mC]*eT*eT*eG*eA) [compound 337285]”: the “% Inhib” value is on record as 78%.

In the case of “337286 (antisense eA*eT*eT*e[5mC]*eA*dG*dA*dT*d[5mC]*dT*dT*dG*d[5mC]*dA*dT*eG*eT*e[5mC]*eT*e[5mC]) [compound 337286]”, the “% Inhib” value is 77%.

For the substance “337287 (antisense eT*eG*eG*eT*eT*dG*dT*dT*dT*d[5mC]*d[5mC]*dA*dT*dT*d[5mC]*eA*eG*eA*eT*e[5mC]) [compound 337287]”, the “% Inhib” value stood at 82%.

“337288 (antisense eT*eG*eG*eT*e[5mC]*dA*d[5mC]*dT*dG*dA*d[5mC]*dT*dG*dG*dT*eT*eG*eT*eT*eT) [compound 337288]”: the “% Inhib” value was 84%.

For “337289 (antisense eT*e[5mC]*e[5mC]*eA*eG*d[5mC]*dT*dG*d[5mC]*dT*dG*d[5mC]*dA*dT*d[5mC]*eT*eT*e[5mC]*eT*eG) [compound 337289]”, the “% Inhib” value was 83%.

With “337290 (antisense eG*eA*eG*e[5mC]*eA*dT*d[5mC]*dT*dG*dT*dT*d[5mC]*d[5mC]*dA*dG*e[5mC]*eT*eG*e[5mC]*eT) [compound 337290]”, the “% Inhib” value is listed as 80%.

Turning to “337291 (antisense e[5mC]*eT*eT*e[5mC]*eT*d[5mC]*d[5mC]*dG*d[5mC]*dA*dT*d[5mC]*dT*dG*dG*eT*e[5mC]*e[5mC]*eA*eG) [compound 337291]”, the “% Inhib” value came to 66%.

“337292 (antisense eT*eT*e[5mC]*eT*eG*d[5mC]*dA*d[5mC]*dG*dT*dA*d[5mC]*dT*d[5mC]*d[5mC]*eA*eT*e[5mC]*eG*e[5mC]) [compound 337292]”: the “% Inhib” value is listed as 81%.

Turning to “337294 (antisense e[5mC]*eT*e[5mC]*eT*eT*d[5mC]*d[5mC]*dA*dG*dT*d[5mC]*dA*dG*d[5mC]*d[5mC]*eA*eG*e[5mC]*eT*e[5mC]) [compound 337294]”, the “% Inhib” value was 75%.

For “337295 (antisense eT*eG*e[5mC]*e[5mC]*eG*d[5mC]*d[5mC]*dT*d[5mC]*dT*dT*d[5mC]*d[5mC]*dA*dG*eT*e[5mC]*eA*eG*e[5mC]) [compound 337295]”, the “% Inhib” value turned out to be 82%.

“337296 (antisense e[5mC]*e[5mC]*eA*eG*eT*dT*dT*dT*d[5mC]*dT*dA*dG*d[5mC]*d[5mC]*dG*eA*eT*e[5mC]*eT*eA) [compound 337296]”: the “% Inhib” value was found to be 80%.

For the substance “337297 (antisense eA*e[5mC]*eG*eT*eT*dA*dT*d[5mC]*d[5mC]*dA*dG*dT*dT*dT*dT*e[5mC]*eT*eA*eG*e[5mC]) [compound 337297]”, the “% Inhib” value is listed as 72%.

Take “337298 (antisense eA*eG*eT*eT*eG*dA*dG*dA*dT*dT*d[5mC]*dT*dG*d[5mC]*dT*eA*eA*eT*eG*eA) [compound 337298]”: the “% Inhib” value came to 74%.

In the case of “337299 (antisense eT*e[5mC]*eT*eG*eA*dA*dG*dT*dT*dG*dA*dG*dA*dT*dT*e[5mC]*eT*eG*e[5mC]*eT) [compound 337299]”, the “% Inhib” value is 80%.

On to “337300 (antisense e[5mC]*e[5mC]*eT*eT*eT*dG*dT*dA*dG*dG*dA*dA*dA*d[5mC]*dT*eT*eT*eT*eT*eG) [compound 337300]”, for which the “% Inhib” value is 23%.

Take “337301 (antisense eA*eG*eG*e[5mC]*eA*d[5mC]*dT*dT*dT*dT*d[5mC]*dA*dT*dT*dA*eA*eG*eT*eT*eT) [compound 337301]”: the “% Inhib” value came to 73%.

In the case of “337302 (antisense eT*eT*eG*eA*e[5mC]*d[5mC]*dA*dG*d[5mC]*dA*dA*d[5mC]*d[5mC]*dT*dG*eA*e[5mC]*eT*eT*eT) [compound 337302]”, the “% Inhib” value stood at 61%.

For the substance “337304 (antisense eT*eT*eT*eT*eA*dA*dG*d[5mC]*dT*dG*dA*dT*dA*dA*dT*eT*e[5mC]*eA*eA*e[5mC]) [compound 337304]”, the “% Inhib” value was 15%.

Regarding “337305 (antisense e[5mC]*eT*eT*eT*eA*dA*dT*dT*dT*dT*dA*dA*dG*d[5mC]*dT*eG*eA*eT*eA*eA) [compound 337305]”, the “% Inhib” value worked out at 25%.

On to “337306 (antisense eG*e[5mC]*eA*e[5mC]*eA*d[5mC]*dT*dT*dT*dA*dA*dT*dT*dT*dT*eA*eA*eG*e[5mC]*eT) [compound 337306]”, for which the “% Inhib” value came to 77%.

Consider “337307 (antisense eT*e[5mC]*eA*eA*eT*dG*d[5mC]*dA*d[5mC]*dA*d[5mC]*dT*dT*dT*dA*eA*eT*eT*eT*eT) [compound 337307]”, for which the “% Inhib” value was 53%.

As for “337308 (antisense e[5mC]*e[5mC]*e[5mC]*eA*eG*dA*dA*dT*dG*dT*dT*dA*dA*dA*dT*eT*eT*e[5mC]*e[5mC]*eG) [compound 337308]”, the “% Inhib” value is given as 70%.

For the substance “337309 (antisense eA*eG*eA*eG*eG*d[5mC]*dT*dG*d[5mC]*d[5mC]*dG*dT*dT*dG*dT*eT*eG*eG*eA*eT) [compound 337309]”, the “% Inhib” value was 73%.

For the substance “337310 (antisense eA*eA*eG*eT*eG*dT*dT*dT*dG*dA*dA*dT*dT*d[5mC]*dT*eG*e[5mC]*eA*eG*eA) [compound 337310]”, the “% Inhib” value worked out at 73%.

On to “337311 (antisense eT*e[5mC]*eT*e[5mC]*eT*dG*d[5mC]*dT*d[5mC]*d[5mC]*d[5mC]*dT*d[5mC]*dA*dG*eG*eG*eT*e[5mC]*eA) [compound 337311]”, for which the “% Inhib” value amounted to 61%.

On to “337312 (antisense eA*eT*e[5mC]*eA*eG*dG*dT*dG*d[5mC]*dA*dG*d[5mC]*dT*d[5mC]*d[5mC]*eT*e[5mC]*eA*eG*eT) [compound 337312]”, for which the “% Inhib” value is on record as 78%.

With “337313 (antisense eA*eG*eG*eT*eG*dA*dT*d[5mC]*dA*dG*dG*dT*dG*d[5mC]*dA*eG*e[5mC]*eT*e[5mC]*e[5mC]) [compound 337313]”, the “% Inhib” value is 61%.
